PubChem BioAssay (NCI)
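Dose response: 5 concentrations. Exposure: 48 h. Format: 96-well plates. Endpoint: linear interpolation; highest concentration if not reached. GI50 is the concentration that inhibits growth by half. At the TGI there is no net growth.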

Assays:
Assay in all cases: NCI-60 cell line screen, 48 h
[1] = test system: HCT-116 colon
[2] = test system: SF-295 CNS
[3] = test system: UO-31 renal
[4] = test system: HL-60(TB) leukemia
[5] = test system: HS 578T breast
[6] = test system: SNB-75 CNS
[7] = test system: KM12 colon
[8] = test system: ACHN renal
[9] = test system: HOP-92 NSCLC
[10] = test system: U251 CNS
[11] = test system: LOX IMVI melanoma
[12] = test system: HT29 colon
[13] = test system: SW-620 colon
[14] = test system: SF-268 CNS
[15] = test system: OVCAR-4 ovarian
[16] = test system: MCF7 breast
[17] = test system: NCI-H226 lung
[18] = test system: SR leukemia
[19] = test system: SN12C renal
[20] = test system: NCI-H460 lung
[21] = test system: CCRF-CEM leukemia
[22] = test system: MDA-MB-435
[23] = test system: SK-MEL-28 melanoma
[24] = test system: COLO 205 colon
[25] = test system: HOP-62 NSCLC
[26] = test system: SK-OV-3 ovarian
[27] = test system: SK-MEL-5 melanoma
[28] = test system: OVCAR-8 ovarian
[29] = test system: BT-549 breast
[30] = test system: UACC-62 melanoma
[31] = test system: MOLT-4 leukemia
[32] = test system: SK-MEL-2 melanoma
[33] = test system: SF-539 CNS
[34] = test system: PC-3 prostate
[35] = test system: NCI-H23 lung
[36] = test system: HCT-15 colon
[37] = test system: 786-0 renal
[38] = test system: A498 renal
[39] = test system: OVCAR-3 ovarian
[40] = test system: NCI/ADR-RES ovarian
[41] = test system: UACC-257 melanoma
[42] = test system: A549 NSCLC
[43] = test system: HCC-2998 colon
[44] = test system: EKVX NSCLC
[45] = test system: RPMI-8226 leukemia
[46] = test system: DU-145 prostate
[47] = test system: K-562 leukemia
[48] = test system: OVCAR-5 ovarian
[49] = test system: T-47D breast
[50] = test system: TK-10 renal
[51] = test system: MDA-MB-231 breast
[52] = test system: NCI-H522 lung
[53] = test system: IGROV1 ovarian
[54] = test system: MALME-3M melanoma
[55] = test system: SNB-19 CNS
[56] = test system: M14 melanoma
[57] = test system: CAKI-1 renal

## O=C(CCCCCCNC(=O)C(O)(O)C(F)(F)F)Nc1nc2ccccc2s1
[1]
  GI50: 1.23 µM
  TGI: > 29.8 µM
[2]
  GI50: 3.43 µM
  TGI: 8.88 µM
[3]
  GI50: 2.01 µM
  TGI: 15.9 µM
[4]
  GI50: 1.85 µM
  TGI: > 29.8 µM
[5]
  GI50: 3.57 µM
  TGI: > 29.8 µM
[6]
  GI50: 1.67 µM
  TGI: > 29.8 µM
[7]
  GI50: 5.84 µM
  TGI: > 29.8 µM
[8]
  GI50: 3.59 µM
  TGI: 17.3 µM
[9]
  GI50: 0.751 µM
  TGI: 8.28 µM
[10]
  GI50: 4.32 µM
  TGI: 25.5 µM
[11]
  GI50: 3.41 µM
  TGI: 7.75 µM
[12]
  GI50: 3.75 µM
  TGI: > 29.8 µM
[13]
  GI50: 2.08 µM
  TGI: 11 µM
[14]
  GI50: 7.69 µM
  TGI: > 29.8 µM
[15]
  GI50: 11 µM
  TGI: > 29.8 µM
[16]
  GI50: 6.59 µM
  TGI: > 29.8 µM
[17]
  GI50: 9.61 µM
  TGI: > 29.8 µM
[18]
  GI50: 1.23 µM
  TGI: > 29.8 µM
[19]
  GI50: 6.39 µM
  TGI: > 29.8 µM
[20]
  GI50: 2.98 µM
  TGI: > 29.8 µM
[21]
  GI50: 2.01 µM
  TGI: > 29.8 µM
[22]
  GI50: 4.36 µM
  TGI: 23.5 µM
[23]
  GI50: 3.76 µM
  TGI: > 29.8 µM
[24]
  GI50: 3.17 µM
  TGI: 9.45 µM
[25]
  GI50: 4.29 µM
  TGI: > 29.8 µM
[26]
  GI50: 2.27 µM
  TGI: 12.6 µM
[27]
  GI50: 4.08 µM
  TGI: 8.13 µM
[28]
  GI50: 2.86 µM
  TGI: > 29.8 µM
[29]
  GI50: 7.06 µM
  TGI: > 29.8 µM
[30]
  GI50: 1.61 µM
  TGI: 6.76 µM
[31]
  GI50: 1.21 µM
  TGI: > 29.8 µM
[32]
  GI50: 4.43 µM
  TGI: 21 µM
[33]
  GI50: 6.56 µM
  TGI: > 29.8 µM
[34]
  GI50: 5.01 µM
  TGI: > 29.8 µM
[35]
  GI50: 4.94 µM
  TGI: 25.9 µM
[36]
  GI50: 5.8 µM
  TGI: 19.1 µM
[37]
  GI50: 6.4 µM
  TGI: > 29.8 µM
[38]
  GI50: 1.51 µM
  TGI: 12.5 µM
[39]
  GI50: 3.17 µM
  TGI: 8.39 µM
[40]
  GI50: 3.4 µM
  TGI: 16.7 µM
[41]
  GI50: 6.56 µM
  TGI: > 29.8 µM
[42]
  GI50: 7.99 µM
  TGI: > 29.8 µM
[43]
  GI50: 5.75 µM
  TGI: 16.8 µM
[44]
  GI50: 6.39 µM
  TGI: > 29.8 µM
[45]
  GI50: 2.73 µM
  TGI: > 29.8 µM
[46]
  GI50: 4.99 µM
  TGI: > 29.8 µM
[47]
  GI50: 1.7 µM
  TGI: > 29.8 µM
[48]
  GI50: 2.33 µM
  TGI: 15 µM
[49]
  GI50: 2.24 µM
  TGI: 22.8 µM
[50]
  GI50: 1.17 µM
  TGI: > 29.8 µM
[51]
  GI50: 3.59 µM
  TGI: 22.1 µM
[52]
  GI50: 2.76 µM
  TGI: 14.7 µM
[53]
  GI50: 4.87 µM
  TGI: 16.4 µM
[54]
  GI50: 1.49 µM
  TGI: 13 µM
[55]
  GI50: 6.49 µM
  TGI: > 29.8 µM
[56]
  GI50: 6.4 µM
  TGI: > 29.8 µM
[57]
  GI50: 6.99 µM
  TGI: > 29.8 µM
